Results on 9 compounds are retold here after paper PMC11249646, “Small-Molecule Disruptors of the Interaction between Calcium- and Integrin-Binding Protein 1 and Integrin αIIbβ3 as Novel Antiplatelet Agents” (ACS Pharmacology & Translational Science, 2024).

The structures appear in SMILES notation. Where two headings read alike, the source gives them in different places.

The target of assay [1] is T1, CIB1 and αIIb interaction (CIB1-GST : F-αIIb peptide) (Homo sapiens, UniProt Q99828).
T1 construct: made in house; host or cells: BL-21 plus RIL cells (E. coli)
T1 sequence (Q99828 1-191): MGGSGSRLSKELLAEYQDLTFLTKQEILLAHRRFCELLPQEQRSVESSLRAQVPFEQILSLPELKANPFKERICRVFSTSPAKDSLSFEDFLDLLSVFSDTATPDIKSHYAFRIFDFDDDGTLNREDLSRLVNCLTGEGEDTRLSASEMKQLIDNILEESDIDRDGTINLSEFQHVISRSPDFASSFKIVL
As to the kind of experiment: FP assay, 1536-well qHTS format (primary and confirmatory screen). Format: binding. On the technique in general: In qHTS, concentration-response curves come from the screen itself.

For assay [2], the target named is T2, GST-CIB1 : F-scrambled peptide (Homo sapiens, UniProt Q99828).
T2 construct: made in house; host or cells: BL-21 plus RIL cells (E. coli)
T2 sequence (Q99828 1-191): T1 sequence (Q99828 1-191)
As to the kind of experiment: FP scrambled-peptide counter screen, 1536-well format. It is filed as binding. The following applies: for IC50: read-out: IC50 [μM] (counterscreen). A general note: The purpose of a counterscreen is to sort out artefacts and off-target activity.

Setting [3] is: Table S3, confirmatory screen, qHTS curve class, a negative sign marks inhibitory curves.
[4] abbreviates: Table S3, confirmatory screen, negative = inhibition.
Setting [5] is: qHTS primary screen hits, Table S2, negative = inhibition.
Where [6] appears, read: qHTS primary screen hits, Table S2, negative sign = inhibitory curve, several classes where COUNT > 1.
Setting [7] is: qHTS primary screen hits, Table S2, read-out: IC50.
[8] abbreviates: Table S3, counterscreen, qHTS curve class, a negative sign marks inhibitory curves.
[9] abbreviates: Table S3, counterscreen, negative = inhibition.
Setting [10] is: Table S3, counterscreen, YES/NO call.
Setting [11] is: confirmatory screen, qHTS curve class, negative sign = inhibitory curve.
Where [12] appears, read: confirmatory screen, read-out: IC50 [μM] (confirmatory screen).
[13] abbreviates: counterscreen, qHTS curve class, negative sign = inhibitory curve.
Where [14] appears, read: qHTS FP screen hits, Table S2, negative = inhibition.
Where [15] appears, read: qHTS FP screen hits, Table S2, read-out: IC50.

`O=C(NC1=CC(=O)[C@H]2O[C@H]2C1=O)c1ccccc1O` [NCGC00168093-01]: the “Confirm? (confirmatory screen)” value in assay [1] (Table S3, confirmatory screen, YES/NO call) is on record as “YES”. Besides, in assay [1] (setting [3]), the “Curve Class (confirmatory screen)” value was -2.4. The “Efficacy (%) (confirmatory screen)” value in assay [1] (setting [4]) was -49%. Also, the concentration for half-maximal inhibition (IC50) (as a rule, the concentration at which inhibition is half-maximal) in assay [1] (Table S3, confirmatory screen, read-out: IC50 [μM] (confirmatory screen)) was 56.2 µM; in assay [1] (setting [7]), 31.6 µM; in assay [2] (Table S3, counterscreen), 50.1 µM. Moreover, the “Efficacy (%)” value in assay [1] (setting [5]) is recorded as -29%. Further, in assay [1] (setting [6]), the “Curve Class” value is -2.4. Moreover, the “Curve Class (counterscreen)” value in assay [2] (setting [8]) is recorded as -2.4. Further, the “Efficacy (%) (counterscreen)” value in assay [2] (setting [9]) was -54%.

As for `CN(C)CCCCCCNC(=O)c1cccc(-c2cc(O)c3ncccc3c2)c1.O=C(O)C(F)(F)F` [NCGC00247743-01], the “Curve Class (confirmatory screen)” value in assay [1] (setting [3]) stood at 4. The “Efficacy (%) (confirmatory screen)” value in assay [1] (setting [4]) was -35%. The “Efficacy (%)” value in assay [1] (setting [5]) was -33%. Further, in assay [1] (setting [6]), the “Curve Class” value was -1.2. For the same compound, the IC50 in assay [1] (setting [7]) stood at 22.4 µM; in assay [2] (Table S3, counterscreen), 44.7 µM. Moreover, in assay [2] (setting [10]), the “Confirm? (counterscreen)” value is given as “YES”. For the same compound, the “Curve Class (counterscreen)” value in assay [2] (setting [8]) is -2.4. Also, the “Efficacy (%) (counterscreen)” value in assay [2] (setting [9]) is -55%.

Regarding `C=CC1=C(C)c2cc3[nH]c(cc4nc(cc5[nH]c(cc1n2)c(C)c5CCC(=O)O)C(CCC(=O)O)=C4C)c(C)c3C=C` [NCGC00015844-07], in assay [1] (confirmatory screen), the “Efficacy (%) (confirmatory screen)” value is listed as -112%. Besides, the “Confirm? (confirmatory screen)” value in assay [1] (confirmatory screen, YES/NO) is “YES”. Also, the “Curve Class (confirmatory screen)” value in assay [1] (setting [11]) is recorded as -1.1. For the same compound, in assay [1] (setting [12]), the half-maximal inhibitory concentration (IC50) is 25.1 µM. In assay [2] (counterscreen), the “Efficacy (%) (counterscreen)” value is on record as -94% and the IC50 was found to be 25.1 µM. The “Curve Class (counterscreen)” value in assay [2] (setting [13]) is given as -2.2.

With `O=C(O)C(F)(F)F.O=C1Nc2ccccc2/C1=N/NC(=S)Nc1ccc(C(=O)O)cc1` [NCGC00229530-01], the “Curve Class (confirmatory screen)” value in assay [1] (setting [3]) came to 4. In assay [1] (setting [4]), the “Efficacy (%) (confirmatory screen)” value is reported as -47%. The “Efficacy (%)” value in assay [1] (setting [14]) is -32%. Also, the concentration for half-maximal inhibition (IC50) in assay [1] (setting [15]) was determined as 8.9 µM; in assay [2] (Table S3, counterscreen), 12.6 µM. Moreover, the “Confirm? (counterscreen)” value in assay [2] (setting [10]) was “YES”. Besides, the “Curve Class (counterscreen)” value in assay [2] (setting [8]) is on record as -1.2. Moreover, in assay [2] (setting [9]), the “Efficacy (%) (counterscreen)” value was -65%.

Take `COC(=O)c1cc(Cl)ccc1NS(=O)(=O)C(F)(F)F` [NCGC00249937-01]: the “Curve Class (confirmatory screen)” value in assay [1] (setting [3]) worked out at 4. In addition, the “Efficacy (%) (confirmatory screen)” value in assay [1] (setting [4]) stood at 12%. Moreover, the “Efficacy (%)” value in assay [1] (setting [5]) was -64%. The “Curve Class” value in assay [1] (setting [6]) was -2.2. Moreover, the IC50 in assay [1] (setting [7]) was determined as 44.7 µM. For the same compound, the “Curve Class (counterscreen)” value in assay [2] (setting [8]) stood at 4. Also, the “Efficacy (%) (counterscreen)” value in assay [2] (setting [9]) is on record as -16%.

Turning to `C=C(CC)C(=O)c1ccc(OCC(=O)O)c(Cl)c1Cl` [NCGC00016260-13], the “Efficacy (%) (confirmatory screen)” value in assay [1] (confirmatory screen) was -56%. In assay [1] (confirmatory screen, YES/NO), the “Confirm? (confirmatory screen)” value is “YES”. For the same compound, the “Curve Class (confirmatory screen)” value in assay [1] (setting [11]) is -2.4. Moreover, the concentration for half-maximal inhibition (IC50) in assay [1] (setting [12]) worked out at 44.7 µM; in assay [1] (setting [15]), 1.3 µM. Besides, the “Efficacy (%)” value in assay [1] (setting [14]) is reported as -28%. In addition, in assay [1] (qHTS FP screen hits, Table S2, one class per curve where COUNT > 1, negative sign = inhibitory curve), the “Curve Class” value was -1.2. Moreover, the “Efficacy (%) (counterscreen)” value in assay [2] (counterscreen) was determined as 0%. The “Confirm? (counterscreen)” value in assay [2] (counterscreen, YES/NO) was “YES”. Moreover, in assay [2] (setting [13]), the “Curve Class (counterscreen)” value was found to be 4.

For the compound `O=c1[nH]c(=O)c2nc3ccccc3nc2[nH]1` [NCGC00015021-05], the “Efficacy (%) (confirmatory screen)” value in assay [1] (confirmatory screen) is listed as -58%. In assay [1] (confirmatory screen, YES/NO), the “Confirm? (confirmatory screen)” value was “YES”. The “Curve Class (confirmatory screen)” value in assay [1] (setting [11]) is listed as -2.2. Moreover, the values for the IC50 in assay [1] (setting [12]), in assay [1] (setting [15]) and in assay [2] (counterscreen) were 44.7 µM, 33.5 µM and 35.5 µM, respectively. The “Efficacy (%)” value in assay [1] (setting [14]) is -54%. The “Efficacy (%) (counterscreen)” value in assay [2] (counterscreen) is -65%. Besides, the “Curve Class (counterscreen)” value in assay [2] (setting [13]) is -2.2.

Consider `NC[C@@H](O)c1ccc(O)c(O)c1.O=C(O)C(O)C(O)C(=O)O` [NCGC00094737-04], for which the “Efficacy (%) (confirmatory screen)” value in assay [1] (confirmatory screen) is -31%. In assay [1] (confirmatory screen, YES/NO), the “Confirm? (confirmatory screen)” value is “YES”. In addition, in assay [1] (setting [11]), the “Curve Class (confirmatory screen)” value was -3. Further, the concentration for half-maximal inhibition (IC50) in assay [1] (setting [12]) was 44.7 µM. Moreover, in assay [2] (counterscreen), the “Efficacy (%) (counterscreen)” value is listed as 82% and the 50% inhibitory concentration (IC50) was 100 µM. Besides, the “Confirm? (counterscreen)” value in assay [2] (counterscreen, YES/NO) is “YES”. Also, the “Curve Class (counterscreen)” value in assay [2] (setting [13]) is 3.

As to `O=[N+]([O-])c1ccc(O)c2ncccc12` [NCGC00160664-03], the “CONFIRMATORY SCREEN Efficacy (%)” value in assay [1] (confirmatory screen) came out at 0%. In addition, the “CONFIRMATORY SCREEN Curve Class” value in assay [1] (confirmatory screen, qHTS curve class) was determined as 4. In assay [1] (setting [5]), the “Efficacy (%)” value is listed as -25%. Also, the “Curve Class” value in assay [1] (setting [6]) was -1.4. Besides, the IC50 in assay [1] (setting [7]) is 31.6 µM. Besides, in assay [2] (counterscreen), the “COUNTERSCREEN Efficacy (%)” value was -13%. Further, in assay [2] (counterscreen, qHTS curve class), the “COUNTERSCREEN Curve Class” value was determined as 4.
